What all share (format): cell-based
One assay has as its system Con-NCI-H82 cell. Description: Cell viability (Promega CellTiter-Glo, intracellular ATP), IC50 on Con-NCI-H82 cell. To be noted: Homo sapiens; normal untreated NCI-H82 cell (control). The essentials:
(§1)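 Con-NCI-H82 cells and NCI-H82 cells overexpressing NNMT via a viral vector were grown in RPMI1640 with 10% FBS. Viability was read as intracellular ATP by CellTiter-Glo luminescence, giving IC50.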

The test system of another assay is ov-NNMT NCI-H82 cell. Briefly: Cell viability (Promega CellTiter-Glo, intracellular ATP), IC50 on NNMT-overexpressing NCI-H82 cell. The note with it: Homo sapiens; NCI-H82 cell overexpressing NNMT protein. The essentials:
as §1

For a further assay, the system named is mPTP-active Daoy cell. Description: Cell viability (Promega CellTiter-Glo), IC50 on mPTP-active Daoy cell. The note with it: Homo sapiens; Daoy cell transfected with empty virus vector.
Another assay concerns mPTP-inactive Daoy cell. Briefly: Cell viability (Promega CellTiter-Glo), IC50 on mPTP-inactive Daoy cell (PPIF shRNA). To be noted: Homo sapiens; Daoy cell transfected with PPIF shRNA vector.

SMILES strings stand for the structures.

Turning to `Cc1ccc(C(=O)Cn2ccc3c[n+](Cc4ccccc4)cc(C)c32)cc1` [AB27256], the half-inhibitory concentration (IC50) in the assay on Con-NCI-H82 cell is 22 nM; with ov-NNMT NCI-H82 cell, 253 nM; in the assay with mPTP-active Daoy cell, 330 nM; with mPTP-inactive Daoy cell it was 120 nM.

As for `Cc1c[n+](Cc2ccccc2)cc2ccn(CC(=O)c3cccc(Cl)c3)c12` [AB27257], the 50% inhibitory concentration (IC50) in the assay with Con-NCI-H82 cell stood at 75 nM; in the assay with ov-NNMT NCI-H82 cell, 968 nM; with mPTP-active Daoy cell, 2160 nM; in the assay on mPTP-inactive Daoy cell it was 880 nM.

As to `Cc1ccc(C(=O)Cn2ccc3c[n+](C(C)c4ccccc4)ccc32)cc1` (stereo not drawn) [AB27261], the IC50 was found to be 23 nM in the assay with Con-NCI-H82 cell, 381 nM with ov-NNMT NCI-H82 cell, 380 nM with mPTP-active Daoy cell and 180 nM in the assay with mPTP-inactive Daoy cell.

As for `Cc1ccc(C(=O)Cn2c(C)cc3c[n+](Cc4ccccc4)ccc32)cc1` [AB27277], the half-inhibitory concentration (IC50) in the assay with Con-NCI-H82 cell worked out at 15 nM; in the assay on ov-NNMT NCI-H82 cell, 245 nM; with mPTP-active Daoy cell, 160 nM; in the assay on mPTP-inactive Daoy cell, 30 nM.

As to `Cc1ccc(C(=O)CNc2cc[n+](Cc3ccccc3)cc2)cc1` [AB27283], the IC50 stood at 874 nM with Con-NCI-H82 cell, 3380 nM with ov-NNMT NCI-H82 cell, 10600 nM in the assay with mPTP-active Daoy cell and 3240 nM in the assay on mPTP-inactive Daoy cell.

Regarding `Cc1ccc(C(=O)C[n+]2ccc(N3CCc4ccccc43)cc2C)cc1` [AB27306], the 50% inhibitory concentration (IC50) in the assay with Con-NCI-H82 cell stood at 737 nM; with ov-NNMT NCI-H82 cell, 5460 nM; in the assay with mPTP-active Daoy cell, 9910 nM; with mPTP-inactive Daoy cell it was 3230 nM.

As to `Cc1ccc(C(=O)C[n+]2ccc(N3CCCCC3)cc2)cc1` [AB27309], the IC50 with Con-NCI-H82 cell was determined as 837 nM; in the assay on ov-NNMT NCI-H82 cell, 4860 nM; with mPTP-active Daoy cell, 8580 nM; with mPTP-inactive Daoy cell, 3370 nM.

Consider `O=C1c2cc(Cl)ccc2CCC1n1ccc2c[n+](CC3CCCC3)ccc21` (stereo not drawn) [AB27316], for which the IC50 is 167 nM with Con-NCI-H82 cell, 1130 nM in the assay with ov-NNMT NCI-H82 cell, 5890 nM with mPTP-active Daoy cell and 1170 nM in the assay on mPTP-inactive Daoy cell.

For the compound `Cc1ccc(C(=O)C[n+]2ccc(NCc3ccccc3)cc2C)c(F)c1` [AB27325], the 50% inhibitory concentration (IC50) came out at 22 nM with Con-NCI-H82 cell, 268 nM in the assay with ov-NNMT NCI-H82 cell, 2010 nM in the assay on mPTP-active Daoy cell and 380 nM in the assay with mPTP-inactive Daoy cell.

Take `Cn1cc(Cc2ccccc2)c2cc[n+](C3CCc4ccc(C(F)(F)F)cc4C3=O)cc21` (stereo not drawn) [AB27338]: the half-maximal inhibitory concentration (IC50) came to 391 nM in the assay on Con-NCI-H82 cell, 2360 nM in the assay with ov-NNMT NCI-H82 cell, 6620 nM with mPTP-active Daoy cell and 2090 nM with mPTP-inactive Daoy cell.

As for `O=C1c2sccc2CCC1n1ccc2c[n+](Cc3ccccc3)ccc21` (stereo not drawn) [AB27345], the half-maximal inhibitory concentration (IC50) is 76 nM in the assay on Con-NCI-H82 cell, 904 nM in the assay on ov-NNMT NCI-H82 cell, 6690 nM in the assay with mPTP-active Daoy cell and 2040 nM with mPTP-inactive Daoy cell.

On to `O=C1c2cc(F)ccc2CCC1[n+]1cnc2c(ccn2Cc2ccccc2)c1` (stereo not drawn) [AB27355], for which the IC50 was 121 nM with Con-NCI-H82 cell, 1020 nM with ov-NNMT NCI-H82 cell, 5920 nM in the assay with mPTP-active Daoy cell and 1170 nM in the assay with mPTP-inactive Daoy cell.

For `O=C1c2cc(F)ccc2CCC1[n+]1ccc2c(ccn2Cc2ccccc2)c1` (stereo not drawn) [AB27356], the IC50 with Con-NCI-H82 cell was 130 nM; in the assay with ov-NNMT NCI-H82 cell it was 1740 nM; in the assay with mPTP-active Daoy cell, 5540 nM; in the assay with mPTP-inactive Daoy cell, 940 nM.

Take `Cc1cc2c[n+](Cc3ccccc3)ccc2n1CC(=O)c1cccc(OC(F)(F)F)c1` [AB27455]: the IC50 turned out to be 22 nM in the assay on Con-NCI-H82 cell, 265 nM with ov-NNMT NCI-H82 cell, 360 nM in the assay on mPTP-active Daoy cell and 110 nM in the assay on mPTP-inactive Daoy cell.

As to `Cc1cc2c[n+](Cc3ccccc3)ccc2n1CC(=O)c1cccc(C(F)(F)F)c1` [AB27456], the IC50 was 22 nM in the assay with Con-NCI-H82 cell, 383 nM in the assay with ov-NNMT NCI-H82 cell, 380 nM in the assay on mPTP-active Daoy cell and 130 nM in the assay on mPTP-inactive Daoy cell.

Take `Cc1cn(CC(=O)c2cccc(OC(F)(F)F)c2)c2cc[n+](Cc3ccccc3)cc12` [AB27457]: the IC50 in the assay with Con-NCI-H82 cell was 417 nM; with ov-NNMT NCI-H82 cell, 6610 nM; in the assay with mPTP-active Daoy cell, 8610 nM; with mPTP-inactive Daoy cell, 2160 nM.

In the case of `Cc1cn(CC(=O)c2cccc(C(F)(F)F)c2)c2cc[n+](Cc3ccccc3)cc12` [AB27458], the IC50 was found to be 748 nM in the assay with Con-NCI-H82 cell, 7720 nM in the assay with ov-NNMT NCI-H82 cell, 10300 nM with mPTP-active Daoy cell and 3010 nM in the assay with mPTP-inactive Daoy cell.

As for `Cc1cn(C2CCc3ccc(F)cc3C2=O)c2cc[n+](C(C)c3ccccc3)cc12` (stereo not drawn) [AB27459], the IC50 stood at 86 nM in the assay on Con-NCI-H82 cell, 1240 nM in the assay on ov-NNMT NCI-H82 cell, 2430 nM in the assay on mPTP-active Daoy cell and 840 nM with mPTP-inactive Daoy cell.

`Cc1cn(CC(=O)c2ccc(C(F)(F)F)cc2)c2cc[n+](Cc3ccccc3)cc12` [AB27463]: the IC50 is 2060 nM in the assay with Con-NCI-H82 cell, 10600 nM with ov-NNMT NCI-H82 cell, 10600 nM with mPTP-active Daoy cell and 4760 nM in the assay with mPTP-inactive Daoy cell.

In the case of `Cc1cn(Cc2ccccc2)c2cc[n+](C3CCc4ccc(F)cc4C3=O)cc12` (stereo not drawn) [AB27470], the IC50 in the assay on Con-NCI-H82 cell stood at 112 nM; with ov-NNMT NCI-H82 cell, 2430 nM; with mPTP-active Daoy cell it was 3230 nM; in the assay with mPTP-inactive Daoy cell, 930 nM.

For the compound `CC(c1ccccc1)n1cc2cc[n+](C3CCc4ccc(Cl)cc4C3=O)cc2c1` (stereo not drawn) [AB27481], the concentration for half-maximal inhibition (IC50) in the assay on Con-NCI-H82 cell was found to be 228 nM; in the assay with ov-NNMT NCI-H82 cell it was 2730 nM; in the assay on mPTP-active Daoy cell, 2720 nM; in the assay with mPTP-inactive Daoy cell, 650 nM.

In the case of `Cc1c(Cl)c2c[n+](Cc3ccccc3)ccc2n1CC(=O)c1cccc(OC(F)(F)F)c1` [AB27483], the IC50 with Con-NCI-H82 cell worked out at 1160 nM; in the assay on ov-NNMT NCI-H82 cell, 7240 nM; with mPTP-active Daoy cell, 8240 nM; with mPTP-inactive Daoy cell, 2080 nM.

For the compound `O=C(Cn1c(Cl)cc2c[n+](Cc3ccccc3)ccc21)c1cccc(OC(F)(F)F)c1` [AB27486], the IC50 with Con-NCI-H82 cell was 34 nM; in the assay on ov-NNMT NCI-H82 cell, 489 nM; in the assay with mPTP-active Daoy cell, 580 nM; in the assay with mPTP-inactive Daoy cell, 280 nM.

For `O=C(Cn1c(Cl)cc2c[n+](Cc3ccccc3)ccc21)c1cccc(C(F)(F)F)c1` [AB27487], the IC50 with Con-NCI-H82 cell came to 31 nM; in the assay with ov-NNMT NCI-H82 cell it was 496 nM; with mPTP-active Daoy cell it was 570 nM; in the assay with mPTP-inactive Daoy cell, 220 nM.

In the case of `O=C(Cn1c(Br)cc2c[n+](Cc3ccccc3)ccc21)c1cccc(OC(F)(F)F)c1` [AB27489], the 50% inhibitory concentration (IC50) is 23 nM with Con-NCI-H82 cell, 287 nM with ov-NNMT NCI-H82 cell, 370 nM in the assay with mPTP-active Daoy cell and 170 nM in the assay on mPTP-inactive Daoy cell.

Consider `Cc1c(C)n(CC(=O)c2cccc(OC(F)(F)F)c2)c2cc[n+](Cc3ccccc3)cc12` [AB27492], for which the half-inhibitory concentration (IC50) in the assay with Con-NCI-H82 cell was determined as 174 nM; in the assay on ov-NNMT NCI-H82 cell it was 1490 nM; with mPTP-active Daoy cell it was 3750 nM; in the assay with mPTP-inactive Daoy cell, 1210 nM.

On to `O=C(Cn1ncc2c[n+](Cc3ccccc3)ccc21)c1cccc(OC(F)(F)F)c1` [AB27498], for which the IC50 turned out to be 2180 nM in the assay on Con-NCI-H82 cell, 11000 nM in the assay on ov-NNMT NCI-H82 cell, 9890 nM with mPTP-active Daoy cell and 1960 nM in the assay on mPTP-inactive Daoy cell.

Take `O=C1c2cc(Cl)ccc2CCC1n1ncc2c[n+](Cc3ccccc3)ccc21` (stereo not drawn) [AB27500]: the IC50 in the assay on Con-NCI-H82 cell turned out to be 122 nM; in the assay on ov-NNMT NCI-H82 cell, 904 nM; in the assay with mPTP-active Daoy cell, 3180 nM; in the assay on mPTP-inactive Daoy cell it was 620 nM.

As to `O=C1c2cc(Cl)ccc2CCC1n1cnc2c[n+](Cc3ccccc3)ccc21` (stereo not drawn) [AB31704], the IC50 was 264 nM with Con-NCI-H82 cell, 3180 nM in the assay on ov-NNMT NCI-H82 cell, 3690 nM with mPTP-active Daoy cell and 770 nM with mPTP-inactive Daoy cell.

As to `O=C1c2cc(F)ccc2CCC1n1ncc2c[n+](Cc3ccccc3)ccc21` (stereo not drawn) [AB31773], the IC50 in the assay with Con-NCI-H82 cell was 110 nM; with ov-NNMT NCI-H82 cell it was 1810 nM; in the assay on mPTP-active Daoy cell, 2980 nM; in the assay with mPTP-inactive Daoy cell it was 490 nM.

Source of the values: patent publication US20250214993A1, “AROMATIC RING COMPOUND AND USE THEREOF” (SHANGHAI SHIJIANG BIOTECHNOLOGY CO., LTD, priority 2022, published 2025).
